Source: PMC4655192 (Neuropharmacology, 2015)

Key:
KOR = KOR (Mus musculus, UniProt P33534); test: Antagonism of U69,593-stimulated [35S]GTPγS binding in WT striatum; type: biochemical
MOR = conditions: brain homogenates, inverse agonists; ref Wang et al., 2004; cited from earlier work

Structure (SMILES)	IC50 (KOR) [nM]	blockade of U69,593 stimulated G protein activation (KOR; antagonist 10 μM, increasing concentrations of U69,593, WT)	% competition (KOR; vs 10 μM U69,593, WT striatum, n=3) [%]	suppression of MOR basal signaling activity (MOR)
Oc1ccc2c3c1O[C@H]1c4[nH]c5c(c4C[C@@]4(O)[C@@H](C2)N(CC2CC2)CC[C@]314)C[C@@]1(O)[C@H]2Cc3ccc(O)c4c3[C@@]1(CCN2CC1CC1)[C@H]5O4 [NorBNI, Norbinaltorphimine]	6 ± 1.6	fully blocks	99 ± 7	
O=C1/C(=C/c2ccccc2)C[C@@]2(O)[C@H]3Cc4ccc(O)c5c4[C@@]2(CCN3CC2CC2)[C@H]1O5 [BNTX]				less than 10%
